Format in all cases: biochemical
The target of test [1] is T1, insulin amyloid fibrillation (Homo sapiens, UniProt P01308). Briefly: effect of L-ascorbic acid on insulin amyloid fibrillation, complex 1-Pt luminescence assay. The conditions noted are these: for kapp of insulin amyloid fibrillation / tlag of insulin amyloid fibrillation: detected by complex 1-Pt. How it is done:
(§1) In kinetics, insulin amyloid fibrillation can be modeled by a sigmoid function with three different phases: lag phase, log phase, and stationary phase. The values of kapp and tlag for insulin amyloid fibrillation were determined using the sigmoid function which was based on the equation shown below (see similar examples of data fitting in Nielsen et al., Biochemistry, 40:6036-6046 (2001); Hwang et al., J. Biol. Chem., 285:41701-41711 (2010); and Donabedian et al., ACS Chem. Neurosci., 6:1526-1535 (2015)).
(§2) where y is the absorbance, emission intensity, or RLS intensity; A1 is the absorbance, emission intensity, or RLS intensity before amyloid fibrillation; A2 is the absorbance, emission intensity, or RLS intensity after amyloid fibrillation; x is the incubation time; xo is the incubation time at which the absorbance, emission intensity, or RLS intensity is at half maximum; and dx is the time constant. Accordingly, the apparent rate constant, kapp, is equivalent to 1/dx, and the lag time, tlag, is given by xo−2dx.
(§3) Insulin was dissolved at 1.0 mg mL^−1 in an acidic buffer ([NaCl]=137 mM, [KCl]=2.7 mM, pH=2.0) in the presence of different amounts (0, 10, 20, 50, 70, 100 mM) of L-ascorbic acid. The solution was incubated at 65° C. and stirred at 300 rpm. Aliquots were withdrawn at a desired time interval. Insulin samples (10 μM) with different incubation times were added to a solution of thioflavin T (10 μM) in a PBS buffer (10.0 mM, pH=7.4). The emission spectra were recorded at 25° C. at an excitation wavelength of 440 nm. Similarly, insulin samples (10 μM) with different incubation times were added to a solution of complex 1-Pt (50 μM) in a PBS buffer (10.0 mM, pH=7.4, 10% DMSO). The emission spectra were recorded at 25° C. at an excitation wavelength of 400 nm. The values of kapp and tlag for insulin amyloid fibrillation were determined from fitting using the sigmoid equation listed above.

Test [2] concerns the target T1, insulin amyloid fibrillation. The experiment in a line: effect of L-ascorbic acid on insulin amyloid fibrillation, thioflavin T fluorescence assay. The conditions noted are these: detected by thioflavin T. The procedure: as §1, §2, §3
For test [3] the target is unchanged. The experiment in a line: kinetics of insulin amyloid fibrillation reported by probe (sigmoid fit). To be noted: method: Emission; insulin 10 μM; thioflavin T 10 μM (490 nm) or complex 1-Pt 50 μM (650 nm); no L-ascorbic acid. The procedure:
To induce amyloid fibrillation, insulin was dissolved at 1.0 mg mL^−1 in an acidic buffer ([NaCl]=137 mM, [KCl]=2.7 mM, pH=2.0). The solution was incubated at 65° C. and stirred at 300 rpm. Insulin samples with different incubation times were added to a solution of thioflavin T in a PBS buffer (10.0 mM, pH=7.4). The final concentrations of insulin and thioflavin T were both 10 μM. The emission spectra were recorded at 25° C. at an excitation wavelength of 440 nm. Similarly, insulin samples with different incubation times were added to a solution of complex 1-Pt in a PBS buffer (10.0 mM, pH=7.4, 10% DMSO). The final concentrations of insulin and complex 1-Pt were 10 μM and 50 μM, respectively. UV-Vis absorption spectra, emission spectra, and RLS spectra were recorded at 25° C.; the emission spectra were recorded at an excitation wavelength of 400 nm.
In kinetics, insulin amyloid fibrillation can be modeled by a sigmoid function with three different phases: lag phase, log phase, and stationary phase. The values of kapp and tlag for insulin amyloid fibrillation were determined using the sigmoid function which was based on the equation shown below (see similar examples of data fitting in Nielsen et al., Biochemistry, 40:6036-6046 (2001); Hwang et al., J. Biol. Chem., 285:41701-41711 (2010); and Donabedian et al., ACS Chem. Neurosci., 6:1526-1535 (2015)). […]

This is an account of results in US20210165001A1, “COMPOSITIONS AND METHODS FOR DETECTION AND IMAGING OF AMYLOID FIBRILS, AMYLOID PLAQUES, RNA, AND NUCLEOLI” (The University of Hong Kong, priority 2018, published 2021).

T1 sequence (P01308 25-54 limits assumed): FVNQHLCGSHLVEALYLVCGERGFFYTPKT
T1 sequence (P01308 90-110 limits assumed): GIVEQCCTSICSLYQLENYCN

For `O=C1O[C@H]([C@@H](O)CO)C(O)=C1O` [L-ascorbic acid], the “inhibition effect on amyloid fibrillation” value in test [1] (L-ascorbic acid 0-100 mM, thioflavin T and complex 1-Pt assays) is “concentration dependent”. Also, the “kapp of insulin amyloid fibrillation” value came out at 0.18 ± 0.09 min⁻¹ in test [1] (L-ascorbic acid 10 mM); 0.16 ± 0.08 min⁻¹ in test [1] (L-ascorbic acid 20 mM); 0.15 ± 0.07 min⁻¹ in test [1] (L-ascorbic acid 50 mM); 0.12 ± 0.06 min⁻¹ in test [1] (L-ascorbic acid 70 mM); 0.19 ± 0.09 min⁻¹ in test [2] (L-ascorbic acid 10 mM); 0.17 ± 0.08 min⁻¹ in test [2] (L-ascorbic acid 20 mM). Further, the results for the “kapp of insulin amyloid fibrillation” value in test [2] (L-ascorbic acid 50 mM) and in test [2] (L-ascorbic acid 70 mM) were 0.17 ± 0.08 min⁻¹ and 0.14 ± 0.07 min⁻¹, respectively. Besides, the “tlag of insulin amyloid fibrillation” value in test [1] (L-ascorbic acid 10 mM) came out at 53.2 ± 0.2 min; in test [1] (L-ascorbic acid 20 mM), 59.2 ± 0.3 min; in test [1] (L-ascorbic acid 50 mM), 70.1 ± 0.6 min; in test [1] (L-ascorbic acid 70 mM), 85.6 ± 0.6 min; in test [2] (L-ascorbic acid 10 mM) it was 54.3 ± 0.2 min; in test [2] (L-ascorbic acid 20 mM), 57.2 ± 0.3 min. In addition, the results for the “tlag of insulin amyloid fibrillation” value in test [2] (L-ascorbic acid 50 mM) and in test [2] (L-ascorbic acid 70 mM) were 68.3 ± 0.3 min and 83.0 ± 0.3 min, respectively.
`Cc1ccc2c(c1)sc(-c1ccc(N(C)C)cc1)[n+]2C.[Cl-]` [Thioflavin T, thioflavin T]: in test [3], the “kapp (apparent rate constant of insulin amyloid fibrillation)” value is 0.23 ± 0.08 min⁻¹ and the “tlag (lag time of insulin amyloid fibrillation)” value is 54.0 ± 0.1 min.
